Results reported in patent publication US7569547B2, “Inhibiting furin with polybasic peptides” (Board of Supervisors of Louisiana State University and …, priority 2001, dated 2009).
Non-standard residues stand in square brackets, D forms with d. Residues, ends and D or L forms follow the SMILES beside them.

How the values were obtained:
Format in all cases: biochemical
PC1 = target: T1, PC1 (Mus musculus, UniProt P63239); experiment: biochemical
T1 construct: made in house
T1 sequence (P63239 111-753): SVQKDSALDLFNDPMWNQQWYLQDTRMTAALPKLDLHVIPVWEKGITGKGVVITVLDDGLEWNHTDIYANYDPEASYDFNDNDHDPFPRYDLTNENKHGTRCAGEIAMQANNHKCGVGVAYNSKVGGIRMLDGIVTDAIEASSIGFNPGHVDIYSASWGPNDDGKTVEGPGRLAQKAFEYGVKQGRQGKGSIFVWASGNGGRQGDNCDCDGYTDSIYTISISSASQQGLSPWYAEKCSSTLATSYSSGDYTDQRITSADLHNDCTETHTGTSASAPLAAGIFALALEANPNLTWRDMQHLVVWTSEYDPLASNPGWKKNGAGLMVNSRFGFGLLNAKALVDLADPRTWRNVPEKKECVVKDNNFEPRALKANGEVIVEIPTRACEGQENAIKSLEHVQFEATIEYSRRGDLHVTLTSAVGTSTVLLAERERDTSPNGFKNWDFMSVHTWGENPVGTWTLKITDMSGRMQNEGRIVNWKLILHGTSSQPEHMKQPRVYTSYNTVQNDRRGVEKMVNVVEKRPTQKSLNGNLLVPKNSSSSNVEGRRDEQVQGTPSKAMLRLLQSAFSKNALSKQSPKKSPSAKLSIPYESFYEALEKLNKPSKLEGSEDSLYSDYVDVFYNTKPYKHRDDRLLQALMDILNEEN
Procedure: (§1) The proprotein convertases PC1 and PC2 were prepared by ion exchange chromatography as described in G. Frenette et al., Biochim. Biophys. Acta., vol. 1334, pp. 109-115 (1997).
(§2) Enzyme Assays and Hexapeptide Library Screening. Enzyme assays for PC1 and PC2 were performed at pH 5.0 using pERTKR-MCA (Peptides International Inc., Louisville, Ky.) as described in E. Apletalina et al., J. Biol. Chem., vol. 273, pp. 26589-26595 (1998). The assay for furin was performed using the same substrate at pH 7.0 in 100 mM HEPES, 5 mM CaCl2, 0.1% Brij 35. All assays were performed at 37° C. in a 96 well fluorometer (Labsystems) at an excitation wavelength of 380 nm with emission monitored at a wavelength of 460 nm. The total volume was 50 μL. Unless otherwise stated, the final substrate concentration for all assays was 200 μM. When used in a particular experiment, the inhibitory peptides were pre-incubated with enzyme for 30 min at room temperature prior to addition of substrate. All assays were performed in duplicate or triplicate.

PACE4 = target: T2, PACE4 (Rattus norvegicus, UniProt Q63415); experiment: PACE4 enzyme assay, hydrolysis of pERTKR-MCA
T2 construct: made in house; host or cells: stably transfected hEK-293 cells (gift of R. E. Mains), conditioned medium
T2 sequence (Q63415 133-937): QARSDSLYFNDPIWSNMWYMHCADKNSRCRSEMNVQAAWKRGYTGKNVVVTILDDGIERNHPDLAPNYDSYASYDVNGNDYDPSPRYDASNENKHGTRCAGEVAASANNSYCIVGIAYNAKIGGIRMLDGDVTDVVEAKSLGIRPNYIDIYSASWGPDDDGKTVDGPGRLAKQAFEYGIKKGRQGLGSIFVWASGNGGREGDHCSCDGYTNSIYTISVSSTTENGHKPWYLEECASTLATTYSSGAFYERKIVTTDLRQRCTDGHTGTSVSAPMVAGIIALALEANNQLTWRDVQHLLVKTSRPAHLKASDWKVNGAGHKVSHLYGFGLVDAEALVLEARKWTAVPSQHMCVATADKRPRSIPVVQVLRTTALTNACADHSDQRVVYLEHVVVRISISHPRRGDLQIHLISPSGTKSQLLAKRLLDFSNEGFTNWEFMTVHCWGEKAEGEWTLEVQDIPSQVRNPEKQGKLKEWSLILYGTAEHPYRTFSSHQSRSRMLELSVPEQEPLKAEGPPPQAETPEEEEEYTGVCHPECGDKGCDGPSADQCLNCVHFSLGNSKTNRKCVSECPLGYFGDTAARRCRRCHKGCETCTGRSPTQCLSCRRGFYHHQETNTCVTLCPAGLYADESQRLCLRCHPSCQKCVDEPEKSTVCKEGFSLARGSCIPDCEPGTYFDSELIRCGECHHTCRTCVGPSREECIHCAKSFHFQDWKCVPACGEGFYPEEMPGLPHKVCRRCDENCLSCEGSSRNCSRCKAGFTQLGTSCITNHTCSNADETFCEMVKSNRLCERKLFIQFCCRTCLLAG
Procedure: The proprotein convertase PACE4 was partially purified from an overnight-conditioned medium of stably transfected hEK-293 human embryonic kidney cells (a generous gift of R. E. Mains, Johns Hopkins University School of Medicine, Baltimore, Md.). Briefly, 100 mL of conditioned medium (OptiMEM containing 100 μg/mL aprotinin) was loaded onto an Econo-Pac Q (Bio-Rad) column at 4 mL/min, washed with 10 mL of buffer A, and then eluted with a linear gradient of buffer A containing 500 mM NaCl over 50 mL. The active fractions were then diluted 1:4 with buffer A prior to loading onto a Mono Q column (Pharmacia) at 1 mL/min. The PACE4 was eluted with a linear gradient of buffer A containing 500 mM NaCl over 10 mL. The resulting active fractions were then pooled and stored at −80° C. until use.
as §2

PC2 = target: T3, PC2 (Mus musculus, UniProt P21661); experiment: PC2 enzyme assay, hydrolysis of pERTKR-MCA at pH 5.0; design: made in house
T3 sequence (P21661 109-637): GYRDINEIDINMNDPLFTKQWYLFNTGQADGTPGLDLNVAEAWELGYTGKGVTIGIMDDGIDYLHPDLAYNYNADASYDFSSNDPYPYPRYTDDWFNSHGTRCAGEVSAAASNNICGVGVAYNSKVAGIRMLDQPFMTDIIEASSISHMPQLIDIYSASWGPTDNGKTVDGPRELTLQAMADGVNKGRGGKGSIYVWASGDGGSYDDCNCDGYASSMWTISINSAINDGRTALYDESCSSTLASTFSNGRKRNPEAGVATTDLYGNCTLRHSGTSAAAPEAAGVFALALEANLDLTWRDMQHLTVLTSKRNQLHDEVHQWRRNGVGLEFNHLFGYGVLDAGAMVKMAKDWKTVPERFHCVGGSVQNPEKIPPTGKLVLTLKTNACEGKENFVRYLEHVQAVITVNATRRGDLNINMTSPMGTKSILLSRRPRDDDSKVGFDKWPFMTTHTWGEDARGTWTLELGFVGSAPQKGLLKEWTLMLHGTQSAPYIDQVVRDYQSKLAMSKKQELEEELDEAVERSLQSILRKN
Procedure: as §1, §2

recombinant mouse furin = target: T4, recombinant mouse furin (Mus musculus, UniProt P23188); experiment: Furin enzyme assay, hydrolysis of pERTKR-MCA at pH 7.0; conditions: for type of inhibition of furin (Lineweaver-Burk plots): furin 30 nM, 0, 20 or 40 μM hexapeptide, polyarginines forty-fold lower
T4 construct: truncated N-terminally to the transmembrane domain at His^711 using PCR; myc (C, cleaved yes); hexa-His (C, cleaved yes); made in house; host or cells: DG44 CHO cells, conditioned medium
Text: Recombinant convertase preparation. The mouse furin clone was a kind gift from K. Nakayama (Fukuoka University School of Medicine, Fukuoka, Japan). The mouse furin cDNA was truncated N-terminally to the transmembrane domain at His^711 using PCR. This PCR product was then subcloned into pcDNA3.1 (−) myc-His (Invitrogen) at the Nhe1 and Xba1 restriction sites. Dihydrofolate-reductase-negative DG44 Chinese Hamster Ovary (CHO) cells (L. Chasin, Columbia University, New York, N.Y.) were transfected using Lipofectin (Life Technologies), and colonies were selected at 37° C. in 5% CO2 in α-MEM (lacking nucleosides) containing 10% well-dialyzed fetal bovine serum (Life Technologies). Conditioned media from colonies were screened using an enzyme assay (see below), and a high-expressing clone was selected. Overexpression of furin was achieved by increasing the methotrexate concentration from 5 nM to 50 μM in five- to ten-fold steps as described in I. Lindberg et al., Methods Neurosci., vol. 23, pp. 94-108 (1995). The amplified lines were tested for increased furin expression by enzyme assay. Once the 50 μM methotrexate level had been reached, cells were split at ratios of 1:6 twice a week. 100 mL of conditioned media (OptiMEM, Life Technologies) containing 100 μg/mL aprotinin (Miles Laboratories, Kankakee, Ill.) was collected from confluent roller bottles every 24 h. The medium was then centrifuged at low speed to remove cells, and the supernatant was stored at −80° C. until use.
Purification of furin: Conditioned medium was thawed, pooled, and diluted 1:3.5 with buffer A (20 mM HEPES, 0.1% Brij 35, 5 mM CaCl2, pH 7.4), and pumped at 40 mL/min through a Sartorius D100 anion exchange membrane. The membrane was washed with 40 mL of buffer A, followed by 40 mL of buffer A containing 50 mM NaCl, and finally by 40 mL of buffer A containing 200 mM NaCl. The fraction eluting with 200 mM NaCl was diluted 1:4 with buffer A and applied to a 1 mL Pharmacia Mono Q HR5/5 anion exchange column at a flow rate of 1 mL/min. Following a 10 mL wash with buffer A, furin was eluted by a linear increase of 0 to 500 mM NaCl in buffer A over 30 mL; and 2 mL fractions were collected. Fractions containing peak activity were pooled, and 200 μL aliquots were subjected to gel permeation chromatography using a Pharmacia Superose 12 column at a flow rate of 0.5 mL/min of buffer A containing 200 mM NaCl. Fractions were assayed for activity as described below; protein content was determined using the Bradford method. All purification steps were performed at 4° C.
as §2

T4 sequence (P23188 108-714 limits assumed): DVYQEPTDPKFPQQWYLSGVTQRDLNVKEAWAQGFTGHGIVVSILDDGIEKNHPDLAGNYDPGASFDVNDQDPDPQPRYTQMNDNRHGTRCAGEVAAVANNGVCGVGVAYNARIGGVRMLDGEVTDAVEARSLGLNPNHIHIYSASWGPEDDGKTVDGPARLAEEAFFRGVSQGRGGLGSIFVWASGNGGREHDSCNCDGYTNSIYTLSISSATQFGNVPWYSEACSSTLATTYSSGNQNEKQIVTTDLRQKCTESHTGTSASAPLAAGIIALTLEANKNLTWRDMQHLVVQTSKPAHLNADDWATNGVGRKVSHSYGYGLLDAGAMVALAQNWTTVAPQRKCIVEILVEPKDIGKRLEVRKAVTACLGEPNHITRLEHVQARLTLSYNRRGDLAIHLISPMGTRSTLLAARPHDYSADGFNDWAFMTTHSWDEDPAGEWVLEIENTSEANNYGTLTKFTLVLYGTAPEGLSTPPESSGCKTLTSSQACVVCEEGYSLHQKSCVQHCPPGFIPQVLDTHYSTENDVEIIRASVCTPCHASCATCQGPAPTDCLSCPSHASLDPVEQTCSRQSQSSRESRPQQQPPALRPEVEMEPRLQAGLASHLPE

Molecule	Ki (PC2)	also measured
N=C(N)NCCC[C@H](NC(=O)[C@H](CCCNC(=N)N)NC(=O)[C@H](CCCNC(=N)N)NC(=O)[C@H](CCCNC(=N)N)NC(=O)[C@H](CCCNC(=N)N)NC(=O)[C@H](CCCNC(=N)N)NC(=O)[C@@H](N)CCCNC(=N)N)C(=O)O [Hepta-L-arginine]	–	Ki (PC1): 5.2 ± 1.2 µM; Ki (PACE4): 0.24 ± 0.045 µM
Ac-HRKRRR-NH2 [Ac-HRKRRR-NH2]	309 ± 29 µM	–
CC(=O)N[C@@H](CC(C)C)C(=O)N[C@@H](CC(C)C)C(=O)N[C@@H](CCCN=C(N)N)C(=O)N[C@H](C(=O)N[C@@H](CCCCN)C(=O)N[C@@H](CCCN=C(N)N)C(=O)O)C(C)C [Ac-LLRVKR]	1.3 ± 0.6 µM	–
CC(=O)N[C@H](Cc1c[nH]c2ccccc12)C(=O)N[C@H](CCCNC(=N)N)C(=O)N[C@H](CCCNC(=N)N)C(=O)N[C@H](CCCNC(=N)N)C(=O)N[C@H](CCCNC(=N)N)C(=O)N[C@H](CCCNC(=N)N)C(N)=O [Ac-wrrrrr-NH2] (Ac-[dW][dR][dR][dR][dR][dR]-NH2)	334 ± 37 µM	Ki (recombinant mouse furin): 2.4 ± 0.8 µM; type of inhibition of furin (Lineweaver-Burk plots) (recombinant mouse furin): strictly competitive-type inhibition
Ac-RRKRRR-NH2 [Ac-RRKRRR-NH2]	461 ± 75 µM	type of inhibition of furin (Lineweaver-Burk plots) (recombinant mouse furin): strictly competitive-type inhibition
Ac-MRKRRR-NH2 [Ac-MRKRRR-NH2]	1500 µM	–
H-RRRRR-OH [Penta-L-arginine]	–	Ki (PC1): 14 ± 6.1 µM; Ki (PACE4): 0.98 ± 0.12 µM
CC(C)C[C@H](NC(=O)[C@@H](N)CC(C)C)C(=O)N[C@@H](CCCNC(=N)N)C(=O)N[C@H](C(=O)N[C@@H](CCCCN)C(=O)N[C@@H](CCCNC(=N)N)C(N)=O)C(C)C [LLRVKR-NH2]	2.3 ± 0.2 µM	–
Ac-HHKRRR-NH2 [Ac-HHKRRR-NH2]	235 ± 16 µM	–
CC(=O)N[C@H](Cc1c[nH]c2ccccc12)C(=O)N[C@H](CCCNC(=N)N)C(=O)N[C@H](CCCNC(=N)N)C(=O)N[C@H](CCCNC(=N)N)C(=O)N[C@H](CCCNC(=N)N)C(=O)N[C@H](CC(C)C)C(N)=O [Ac-wrrrrl-NH2] (Ac-[dW][dR][dR][dR][dR][dL]-NH2)	203 ± 20 µM	Ki (recombinant mouse furin): 5.3 ± 1 µM
CC[C@@H](C)[C@@H](NC(=O)[C@@H](CCCNC(=N)N)NC(=O)[C@@H](CCCNC(=N)N)NC(=O)[C@@H](CCCNC(=N)N)NC(=O)[C@@H](Cc1c[nH]c2ccccc12)NC(C)=O)C(=O)N[C@H](CC(C)C)C(N)=O [Ac-wrrril-NH2] (Ac-[dW][dR][dR][dR][dI][dL]-NH2)	601 ± 200 µM	Ki (recombinant mouse furin): 22.7 ± 4.3 µM
N=C(N)NCCC[C@H](NC(=O)[C@H](CCCNC(=N)N)NC(=O)[C@H](CCCNC(=N)N)NC(=O)[C@H](CCCNC(=N)N)NC(=O)[C@H](CCCNC(=N)N)NC(=O)[C@H](CCCNC(=N)N)NC(=O)[C@H](CCCNC(=N)N)NC(=O)[C@@H](N)CCCNC(=N)N)C(=O)O [Octa-L-arginine]	–	Ki (PC1): 5.1 ± 2 µM; Ki (PACE4): 0.15 ± 0.06 µM
Ac-MHKRRR-NH2 [Ac-MHKRRR-NH2]	216 ± 13 µM	–
Ac-KRKRRR-NH2 [Ac-KRKRRR-NH2]	391 ± 60 µM	–
Ac-KHKRRR-NH2 [Ac-KHKRRR-NH2]	280 ± 29 µM	–
CC(C)C[C@H](NC(=O)[C@@H](N)CC(C)C)C(=O)N[C@@H](CCCNC(=N)N)C(=O)N[C@H](C(=O)N[C@@H](CCCCN)C(=O)N[C@@H](CCCNC(=N)N)C(=O)O)C(C)C [LLRVKR]	3.7 ± 0.17 µM	increase of inhibitory potency against furin on removing the terminal amide and acetyl groups (recombinant mouse furin; LLRVKR compared with acetylated and amidated form): eight-fold
CC[C@@H](C)[C@@H](NC(=O)[C@@H](CCCNC(=N)N)NC(=O)[C@@H](CCCNC(=N)N)NC(=O)[C@@H](CCCNC(=N)N)NC(=O)[C@@H](Cc1c[nH]c2ccccc12)NC(C)=O)C(=O)N[C@H](CCCNC(=N)N)C(N)=O [Ac-wrrrir-NH2] (Ac-[dW][dR][dR][dR][dI][dR]-NH2)	399 ± 75 µM	Ki (recombinant mouse furin): 7 ± 0.9 µM
Ac-RHKRRR-NH2 [Ac-RHKRRR-NH2]	152 ± 30 µM	Ki (recombinant mouse furin): 3.4 ± 0.6 µM
